{
  "source": "patent US20250127896A1",
  "about": "“CHIMERIC TIM4 RECEPTORS AND USES THEREOF” (CERO THERAPEUTICS HOLDINGS, INC., priority 2021, published 2025)",
  "key": {"[1]": {"system": "A2780 ovarian cancer cells", "assay": "Cytokine production by CER T cells co-cultured with PARP inhibitor-treated A2780 cells", "assay_type": "cell-based, human", "settings": "for TNF-α, IFN-γ, granzyme B induction: PARP inhibitor-treated A2780, E:T 1:1", "experimental": "FIGS. 35A-35C: Cytokine production by CER T cells in response to co-culture with PARP inhibitor-treated A2780 ovarian cancer cells. Samples from left to right: no drug, niraparib treated, and olaparib treated. FIG. 35A-IFN-γ. FIG. 35B-TNF-α. FIG. 35C-granzyme B.\n(§1) CER T-cell activation was assessed by measuring induction of IFN-gamma by plate- and cell-based assays. Single induction plate assay: varying concentrations of phosphatidylserine (PS) or phosphatidylethanolamine (PE), a control membrane phospholipid not recognized by wild type TIM-4 (wtTIM-4), were coated onto high-binding tissue culture plates. CER T cells were added and IFN-γ levels were measured 24 hours after ligand exposure by ELISA. EC50 concentrations were determined by nonlinear regression (agonist vs. response-variable slope (4 parameters)). Induction by recursive stimulation plate assay: CER T cells were added to phosphatidylserine coated plates (2.5-20 μg/mL PS coating). Five days later, CER T cells were transferred to uncoated plates with fresh T cell optimizer media for 24 hours. Then, CER T cells were transferred again to a fresh PS coated plate. Supernatant was collected to assess IFN-γ induction by ELISA at various timepoints during re-stimulation (24, 72, and 120 hours). Cell-based assay: cytokine induction was assessed by multiparametric ELISA using conditioned supernatants harvested after 120 hours from the cytotoxicity assay described below."}, "[2]": {"system": "REC-1 cells", "assay": "CER T cell cytotoxicity against REC-1 mCherry cells with ibrutinib (Incucyte)", "assay_type": "cell-based", "settings": "for cytotoxic activity of CER T cells alone (no ibrutinib) / tumor cell killing in combination with ibrutinib: REC-1 cells", "source_text": "FIG. 38: CER1236 T cells have enhanced and more complete cytotoxic effect against Ibrutinib-treated REC-1 MCL cells but not untreated REC-1 MCL cells.\nIbrutinib was washed off prior to co-culture with CER T cells. […] Total fluorescence of REC-1 mCherry cells decreased as cytotoxicity occurred."}, "[3]": {"system": "Jeko1 TMEM30A−/− cells", "assay": "Uptake/engulfment of pHrodo-labeled JeKo-1 PS+ (TMEM30A−/−) cells by CER T cells", "assay_type": "cell-based", "settings": "for uptake/engulfment of JeKo-1 PS+ (TMEM30A−/−) tumor cell fragments: pHrodo label, in vitro co-culture", "experimental": "FIG. 20: FACs and imaging-based detection of pHrodo dye-labeled tumor cell phagocytosis and endocytosis.\nStatistical analysis was performed using 2-way ANOVA."}, "[4]": {"system": "phosphatidylethanolamine (PE)", "assay": "Single induction plate assay: IFN-γ by CER T cells on plate-bound phosphatidylethanolamine (control)", "assay_type": "cell-based", "source_text": "(§2) FIGS. 19A-19C: CER T cells are activated and produce IFN-γ in response to phosphatidylserine engagement in a cell-free in vitro system. FIG. 19A: IFN-γ production in response phosphatidylserine (PS). IFN-γ production was induced in CER-1236 and CER-1234 T cells stimulated with PS (FIG. 19A), but not with phosphatidylethanolamine (PE) (FIG. 19B). […] FIG. 19C: CER1236 T cells are capable of recursive stimulation in vitro. Recursive IFN-γ induction with 3 serial stimulations at the indicated time points following a 24-hour rest after the first stimulation.\nFIG. 33A-33C: CER T cells are activated and produce IFN-γ in response to phosphatidylserine engagement in a cell-free in vitro system. FIG. 33A: IFN-γ production in response phosphatidylserine (PS). IFN-γ production was induced in CER-1236 and CER-1234 T cells stimulated with PS (FIG. 33A), but not with phosphatidylethanolamine (PE) (FIG. 33B). […]\nCER T-cell activation was assessed by measuring induction of IFN-gamma by plate- and cell-based assays. […] CER T cells were added and IFN-γ levels were measured 24 hours after ligand exposure by ELISA. EC50 concentrations were determined by nonlinear regression (agonist vs. response-variable slope (4 parameters)). […] Cell-based assay: cytokine induction was assessed by multiparametric ELISA using conditioned supernatants harvested after 120 hours from the cytotoxicity assay described below."}, "[5]": {"system": "phosphatidylserine (PS)", "assay": "Single induction plate assay: IFN-γ by CER T cells on plate-bound phosphatidylserine (ELISA)", "assay_type": "cell-based", "settings": "for IFN-γ production in response to phosphatidylserine: plate-bound PS; for IFNγ production by donor in response to increasing doses of plate-bound phosphatidylserine: three donors (31, 32, 38)", "source_text": "as §2\nas §2, with “FIG. 33A-33C:” for “FIGS. 19A-19C:”, “33A:” for “19A:”, “33A),” for “19A),”, “33B).” for “19B).”, “33C:” for “19C:”\nFIG. 44 are graphs showing IFNγ production in CER1234 T cells (left) or CER1236 T cells (right) from three donors in response to titrating doses of plate-bound phosphatidylserine.\nFIG. 45 are graphs showing IFNγ production in CER1234 T cells or CER1236 T cells by donor in response to increasing doses of plate-bound phosphatidylserine.\nFIG. 46 are graphs showing IFNγ production in CER1234 T cells or CER1236 T cells by donor in response to increasing doses of plate-bound phosphatidylserine at day 14 post-thaw.\nFIG. 47 are graphs showing T cell expansion (left), IFNγ production (center), and cell viability (right) in CER1236 T cells in response to increasing doses of plate-bound phosphatidylserine.\nFIG. 48 are graphs showing T cell expansion (left), IFNγ production (center), and cell viability (right) in CER1234 T cells in response to increasing doses of plate-bound phosphatidylserine.\nas §1\nT cells obtained from three different donors were transduced with CER1234 or CER1236 and incubated on titrating doses of plate-bound phosphatidylserine.\n24 hour IFNγ stimulation by plate-bound phosphatidylserine aligns with day 5 post-activation expansion for CER1236 T cells. […] 24 hour IFNγ stimulation by plate-bound phosphatidylserine aligns with day 5 post-activation expansion for CER1234 T cells."}, "[6]": {"settings": "either drug combined, 96 hours, compared to CER-1234 with no drug"}, "[7]": {"settings": "Donor 38, 24 hours after ligand exposure"}, "[8]": {"settings": "Donor 41, 24 hours after ligand exposure"}},
  "note": "Entries after “also recorded” stand apart in the source; their conditions may differ.",
  "data": [
    {"substance": "CER-1234: chimeric Tim4 receptor: Tim4 binding domain-CD28tm-CD28-TLR2 TIR-CD3z, SEQ ID NO:18; tested as transduced T cells", "values": [
      {"measurement": "TNF-α, IFN-γ, granzyme B induction", "setting": "[1]", "value": "induced"},
      {"measurement": "Interferon-γ increase", "setting": "[1]; [6]", "value": 7, "unit": "fold"},
      {"measurement": "granzyme B increase", "setting": "[1]; [6]", "value": "5-7 fold"},
      {"measurement": "cytotoxicity", "setting": "[2]; BTKi treatment in combination", "value": "> 90", "unit": "%"},
      {"measurement": "cytotoxic activity of CER T cells alone (no ibrutinib)", "setting": "[2]", "value": "limited cytotoxic activity"},
      {"measurement": "tumor cell killing in combination with ibrutinib", "setting": "[2]", "value": "Tumor cell killing was enhanced"},
      {"measurement": "uptake/engulfment of JeKo-1 PS+ (TMEM30A−/−) tumor cell fragments", "setting": "[3]", "value": "increased uptake of JeKo-1 PS^+ tumor cell fragments"},
      {"measurement": "IFN-γ production in response to phosphatidylethanolamine", "setting": "[4]", "value": "but not to phosphatidylethanolamine (PE)"},
      {"measurement": "PS EC50 (IFN-γ production)", "setting": "[5]; [7]", "value": 3.52, "unit": "mg/L"},
      {"measurement": "PS EC50 (IFN-γ production)", "setting": "[5]; [8]", "value": 1.88, "unit": "mg/L"},
      {"measurement": "IFN-γ production in response to phosphatidylserine", "setting": "[5]", "value": "specifically produce IFN-γ in a dose-dependent manner; also recorded: produced concentration-dependent IFN-γ responses"},
      {"measurement": "IFNγ production by donor in response to increasing doses of plate-bound phosphatidylserine", "setting": "[5]", "value": "shows lower activation for donors 32 and 38"}
    ]},
    {"substance": "CER-1236: chimeric Tim4 receptor: Tim4 binding domain-CD28tm-CD28-CD3z-TLR2 TIR, SEQ ID NO:19; tested as transduced T cells", "values": [
      {"measurement": "TNF-α, IFN-γ, granzyme B induction", "setting": "[1]", "value": "induced"},
      {"measurement": "cytotoxic activity of CER T cells alone (no ibrutinib)", "setting": "[2]", "value": "Some CER1236 T cytotoxicity against untreated REC-1 cells is observed"},
      {"measurement": "tumor cell killing in combination with ibrutinib", "setting": "[2]", "value": "synergize with ibrutinib to enhance killing of REC-1 mantle cell lymphoma cells"},
      {"measurement": "phagocytic index (frequency and magnitude of uptake)", "setting": "[3]; compared to wtTim-4, CER1250 and CER1236+actin polymerization inhibitor", "value": "Higher frequency and magnitude of uptake"},
      {"measurement": "uptake/engulfment of JeKo-1 PS+ (TMEM30A−/−) tumor cell fragments", "setting": "[3]", "value": "increased uptake of JeKo-1 PS^+ tumor cell fragments; also recorded: exhibited increased engulfment of Jeko1 TMEM30A^−/− cells"},
      {"measurement": "IFN-γ production in response to phosphatidylethanolamine", "setting": "[4]", "value": "but not to phosphatidylethanolamine (PE)"},
      {"measurement": "PS EC50 (IFN-γ production)", "setting": "[5]; [7]", "value": 4.74, "unit": "mg/L"},
      {"measurement": "PS EC50 (IFN-γ production)", "setting": "[5]; [8]", "value": 3.16, "unit": "mg/L"},
      {"measurement": "IFNγ production by donor on plate-bound phosphatidylserine at day 14 post-thaw", "setting": "[5]; day 14 post-thaw", "value": "produces more IFNγ across all donors compared to CER1234 T cells"},
      {"measurement": "IFN-γ production in response to phosphatidylserine", "setting": "[5]", "value": "specifically produce IFN-γ in a dose-dependent manner; also recorded: produced concentration-dependent IFN-γ responses"},
      {"measurement": "IFNγ production by donor in response to increasing doses of plate-bound phosphatidylserine", "setting": "[5]", "value": "shows strong activation"}
    ]}
  ]
}
